Data: patent US20210110884A1 (priority 2019, published 2021)

T1: E. coli DHFR (Escherichia coli, UniProt P0ABQ4)
T1 sequence (P0ABQ4 1-159): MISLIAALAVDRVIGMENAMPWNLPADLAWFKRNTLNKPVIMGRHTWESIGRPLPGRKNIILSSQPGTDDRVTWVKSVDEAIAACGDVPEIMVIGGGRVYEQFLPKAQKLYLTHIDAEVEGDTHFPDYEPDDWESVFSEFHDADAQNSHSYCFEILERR

B1: BChEG117: butyrylcholinesterase as printed without H; apparently the enzyme lacking the G117H mutation (protein, UniProt P06276 29-602, looked up)
Cholinesterase: EDDIIIATKNGKVRGMNLTVFGGTVTAFLGIPYAQPPLGRLRFKKPQSLTKWSDIWNATKYANSCCQNIDQSFPGFHGSEMWNPNTDLSEDCLYLNVWIPAPKPKNATVLIWIYGGGFQTGTSSLHVYDGKFLARVERVIVVSMNYRVGALGFLALPGNPEAPGNMGLFDQQLALQWVQKNIAAFGGNPKSVTLFGESAGAASVSLHLLSPGSHSLFTRAILQSGSFNAPWAVTSLYEARNRTLNLAKLTGCSRENETEIIKCLRNKDPQEILLNEAFVVPYGTPLSVNFGPTVDGDFLTDMPDILLELGQFKKTQILVGVNKDEGTAFLVYGAPGFSKDNNSIITRKEFQEGLKIFFPGVSEFGKESILFHYTDWVDDQRPENYREALGDVVGDYNFICPALEFTKKFSEWGNNAFFYYFEHRSSKLPWPEWMGVMHGYEIEFVFGLPLERRDNYTKAEEILSRSIVKRWANFAKYGNPNETQNNSTSWPVFKSTEQKYLTLNTESTRIMTKLRAQQCRFWTSFFPKVLEMTGNIDEAEWEWKAGFHRWNNYMMDWKNQFNDYTSKKESCVGL

Assays:
E. coli DHFR = molecular target: T1, E. coli DHFR; format: biochemical
[1] = format: biochemical

Molecule	decrease of hydride transfer by E. coli DHFR (E. coli DHFR) [fold]	pH independent rate for hydride transfer (E. coli DHFR) [s^−1]	inhibition by selected OP concentrations [1] [%]
CC(C)O [isopropanol]	2.2	530±10	–
B1	–	–	> 99
